# Reference: patent publication US6479435B1, “Diaryl ethers and processes for their preparation and herbicidal and desiccant compositions containing them” (ISK Americas Incorporated, priority 1997, dated 2002)
# What was measured:
# Assay type in all cases: in vivo
# [1] = system: upland rice (Oryza sp., var.Tebonnet, RICE); test: Post-emerge greenhouse test, crop damage rating; conditions: 14 days after application
# Method in brief: (§1)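 Compounds in acetone with 0.25% v/v non-ionic surfactant were track-sprayed at 187 l/ha over plants at the 2-3 leaf stage, at 63 to 1000 g ai/ha. Pots were bottom-watered. Injury was scored visually 14 days later on a 0-100 scale, where 0 is no damage and 100 is complete plant death.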
# [2] = system: field corn (Zea mays L., var. Dekalb 535, CORN); test: Post-emerge greenhouse test, crop damage rating; conditions: 14 days after application
# Method in brief: as §1
# [3] = system: soybean (Glycine max L., var. Pella 86, SOY); test: Pre-emerge greenhouse test, crop damage rating; conditions: 14 days after application, rating scale 0-100
# Method in brief: (§2)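 Seeds sown in sandy loam mix one day before track-sprayer application of compounds in acetone at 125–1000 g ai/ha (187 l/ha), then surface-watered to incorporate and bottom-watered. Visual rating 14 days after application on a 0–100 scale (0 = no damage, 100 = all plants dead).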
# [4] = system: upland rice (Oryza sp., var.Tebonnet, RICE); test: Pre-emerge greenhouse test, crop damage rating; conditions: 14 days after application, rating scale 0-100
# Method in brief: as §2
# [5] = system: field corn (Zea mays L., var. Dekalb 535, CORN); test: Pre-emerge greenhouse test, crop damage rating; conditions: 14 days after application, rating scale 0-100
# Method in brief: as §2
# [6] = system: sicklepod (Cassia obtusifolia, CASOB); test: Pre-emerge greenhouse herbicide test, phytotoxicity rating; conditions: 14 days after application, rating scale 0-100
# Method in brief: as §2
# [7] = system: velvetleaf (Abutilon theophrasti, ABUTH); test: as above; conditions: 14 days after application, rating scale 0-100
# Method in brief: as §2
# [8] = system: large crabgrass (Digitaria sanguinalis, DIGSA); test: as above; conditions: 14 days after application, rating scale 0-100
# Method in brief: as §2
# [9] = system: redroot pigweed (Amaranthus retroflexus, AMARE); test: as above; conditions: 14 days after application, rating scale 0-100
# Method in brief: as §2
# [10] = system: Johnsongrass (Sorghum halepense, SORHA); test: as above; conditions: 14 days after application, rating scale 0-100
# Method in brief: as §2
# [11] = system: barnyardgrass (Echinochloa crusgalli, ECHCG); test: as above; conditions: 14 days after application, rating scale 0-100
# Method in brief: as §2
# [12] = system: common ragweed (Ambrosia artemisiifolia L., AMBEL); test: as above; conditions: 14 days after application, rating scale 0-100
# Method in brief: as §2
# [13] = system: lambsquarters (Chenopodium album, CHEAL); test: as above; conditions: 14 days after application, rating scale 0-100
# Method in brief: as §2
# [14] = system: ivyleaf morningglory (Ipomoea hederacea, IPOHE); test: as above; conditions: 14 days after application, rating scale 0-100
# Method in brief: as §2
# [15] = system: green foxtail (Setaria viridis, SETVI); test: as above; conditions: 14 days after application, rating scale 0-100
# Method in brief: as §2
# [16] = system: soybean (Glycine max L., var. Pella 86, SOY); test: Post-emerge greenhouse test, crop damage rating; conditions: 14 days after application
# Method in brief: as §1
# [17] = system: common ragweed (Ambrosia artemisiifolia L., AMBEL); test: Post-emerge greenhouse herbicide test, phytotoxicity rating; conditions: 14 days after application
# Method in brief: as §1
# [18] = system: velvetleaf (Abutilon theophrasti, ABUTH); test: as above; conditions: 14 days after application
# Method in brief: as §1
# [19] = system: large crabgrass (Digitaria sanguinalis, DIGSA); test: as above; conditions: 14 days after application
# Method in brief: as §1
# [20] = system: redroot pigweed (Amaranthus retroflexus, AMARE); test: as above; conditions: 14 days after application
# Method in brief: as §1
# [21] = system: Johnsongrass (Sorghum halepense, SORHA); test: as above; conditions: 14 days after application
# Method in brief: as §1
# [22] = system: barnyardgrass (Echinochloa crusgalli, ECHCG); test: as above; conditions: 14 days after application
# Method in brief: as §1
# [23] = system: lambsquarters (Chenopodium album, CHEAL); test: as above; conditions: 14 days after application
# Method in brief: as §1
# [24] = system: ivyleaf morningglory (Ipomoea hederacea, IPOHE); test: as above; conditions: 14 days after application
# Method in brief: as §1
# [25] = system: green foxtail (Setaria viridis, SETVI); test: as above; conditions: 14 days after application
# Method in brief: as §1
smiles,measurement,setting,value
N#Cc1cc([N+](=O)[O-])ccc1Oc1cc(-n2c(=O)n3n(c2=S)CCCC3)c(F)cc1Cl [Compound 8-12],RICE crop damage rating (0-100),[1]; 63 g al/ha,0
same,RICE crop damage rating (0-100),[1]; 500 g al/ha,30
same,CORN crop damage rating (0-100),[2]; 63 g al/ha,0
same,CORN crop damage rating (0-100),[2]; 500 g al/ha,0
same,crop damage rating SOY,[3]; 125 g ai/ha,0
same,crop damage rating SOY,[3]; 500 g ai/ha,0
same,crop damage rating RICE,[4]; 125 g ai/ha,20
same,crop damage rating RICE,[4]; 500 g ai/ha,50
same,crop damage rating CORN,[5]; 125 g ai/ha,0
same,crop damage rating CORN,[5]; 500 g ai/ha,0
same,phytotoxicity rating CASOB,[6]; 125 g ai/ha,0
same,phytotoxicity rating CASOB,[6]; 500 g ai/ha,0
same,phytotoxicity rating ABUTH,[7]; 125 g ai/ha,95
same,phytotoxicity rating ABUTH,[7]; 500 g ai/ha,100
same,phytotoxicity rating DIGSA,[8]; 125 g ai/ha,0
same,phytotoxicity rating DIGSA,[8]; 500 g ai/ha,50
same,phytotoxicity rating AMARE,[9]; 125 g ai/ha,90
same,phytotoxicity rating AMARE,[9]; 500 g ai/ha,100
same,phytotoxicity rating SORHA,[10]; 125 g ai/ha,0
same,phytotoxicity rating SORHA,[10]; 500 g ai/ha,40
same,phytotoxicity rating ECHCG,[11]; 125 g ai/ha,0
same,phytotoxicity rating ECHCG,[11]; 500 g ai/ha,0
same,phytotoxicity rating AMBEL,[12]; 125 g ai/ha,90
same,phytotoxicity rating AMBEL,[12]; 500 g ai/ha,90
same,phytotoxicity rating CHEAL,[13]; 125 g ai/ha,100
same,phytotoxicity rating CHEAL,[13]; 500 g ai/ha,100
same,phytotoxicity rating IPOHE,[14]; 125 g ai/ha,0
same,phytotoxicity rating IPOHE,[14]; 500 g ai/ha,70
same,phytotoxicity rating SETVI,[15]; 125 g ai/ha,0
same,phytotoxicity rating SETVI,[15]; 500 g ai/ha,70
same,SOY crop damage rating (0-100),[16]; 63 g al/ha,50
same,SOY crop damage rating (0-100),[16]; 500 g al/ha,60
same,AMBEL phytotoxicity rating (0-100),[17]; 63 g al/ha,50
same,AMBEL phytotoxicity rating (0-100),[17]; 500 g al/ha,70
same,ABUTH phytotoxicity rating (0-100),[18]; 63 g al/ha,100
same,ABUTH phytotoxicity rating (0-100),[18]; 500 g al/ha,100
same,DIGSA phytotoxicity rating (0-100),[19]; 63 g al/ha,0
same,DIGSA phytotoxicity rating (0-100),[19]; 500 g al/ha,0
same,AMARE phytotoxicity rating (0-100),[20]; 63 g al/ha,70
same,AMARE phytotoxicity rating (0-100),[20]; 500 g al/ha,100
same,SORHA phytotoxicity rating (0-100),[21]; 63 g al/ha,0
same,SORHA phytotoxicity rating (0-100),[21]; 500 g al/ha,50
same,ECHCG phytotoxicity rating (0-100),[22]; 63 g al/ha,0
same,ECHCG phytotoxicity rating (0-100),[22]; 500 g al/ha,40
same,CHEAL phytotoxicity rating (0-100),[23]; 63 g al/ha,80
same,CHEAL phytotoxicity rating (0-100),[23]; 500 g al/ha,70
same,IPOHE phytotoxicity rating (0-100),[24]; 63 g al/ha,80
same,IPOHE phytotoxicity rating (0-100),[24]; 500 g al/ha,70
same,SETVI phytotoxicity rating (0-100),[25]; 63 g al/ha,0
same,SETVI phytotoxicity rating (0-100),[25]; 500 g al/ha,30
